target: T1, crosslinked smooth muscle actomyosin (chicken gizzard smooth muscle myosin subfragment-1 crosslinked to cardiac or skeletal actin) (Gallus gallus, UniProt P10587); assay: Lead optimization pyruvate kinase/horseradish peroxidase/pyruvate oxidase-coupled ATPase assay (compound dose response); type: biochemical; settings: read-out: IC50 Arithmetic Mean
T1 construct: chicken gizzard smooth muscle myosin subfragment-1; from tissue; host or cells: chicken gizzard
Summary of the method: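 The ATPase used chicken gizzard smooth muscle myosin S1 chemically crosslinked to cardiac or skeletal actin, titrated to a set hydrolysis rate. It was coupled via pyruvate kinase/pyruvate oxidase/HRP in 12 mM K-PIPES pH 7.00 (22 °C) with 0.15 mM ATP, 2 mM MgCl2, 100 mM KCl and 0.1 mM Amplex Red. Fluorescence was read at ex 480/em 615 nm, and IC50 came from a 4-parameter fit.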

Structure (SMILES)	IC50
CCc1ccc(NC(=O)OCC2(C(=O)NCc3cccc(F)c3F)CCN(C(=O)CNC(=O)OC(C)(C)C)CC2)cc1 [[(4-{N-[(2,3-difluorophenyl)methyl]carbamoyl}-1-{2-[(tert-butoxy)carbonylamino]acetyl}(4-piperidyl))methoxy]-N-(4-ethylphenyl)carboxamide]	1590 nM
CCc1ccc(NC(=O)OCC2(C(=O)NCc3ccccc3OC)CCN(C(=O)CNC(=O)OC(C)(C)C)CC2)cc1 [(1-{2-[(tert-butoxy)carbonylamino]acetyl}-4-{[N-(4-ethylphenyl)carbamoyloxy]methyl}(4-piperidyl))-N-[(2-methoxyphenyl)methyl]carboxamide]	11300 nM
NCC(=O)N1CCC(COC(=O)Nc2ccc3ccccc3c2)(C(=O)NCc2ccccc2Cl)CC1 [{1-(2-aminoacetyl)-4-[(N-(2-naphthyl)carbamoyloxy)methyl](4-piperidyl)}-N-[(2-chlorophenyl)methyl]carboxamide]	83 nM
NCC(=O)N1CCC(COC(=O)Nc2ccc(C(F)(F)F)cc2)(C(=O)NCc2cccc(Cl)c2F)CC1 [[(1-(2-aminoacetyl)-4-{N-[(3-chloro-2-fluorophenyl)methyl]carbamoyl}(4-piperidyl))methoxy]-N-[4-(trifluoromethyl)phenyl]carboxamide]	370 nM
CCc1ccc(NC(=O)OCC2(C(=O)NCc3ccccc3Cl)CCN(C(=O)c3ncc[nH]3)CC2)cc1 [N-[(2-chlorophenyl)methyl](4-{[N-(4-ethylphenyl)carbamoyloxy]methyl}-1-(imidazol-2-ylcarbonyl)(4-piperidyl))carboxamide]	394 nM
CC(=O)c1ccc(NC(=O)OCC2(C(=O)NCc3ccccc3Cl)CCN(C(=O)CN)CC2)cc1 [(4-{[N-(4-acetylphenyl)carbamoyloxy]methyl}-1-(2-aminoacetyl)(4-piperidyl))-N-[(2-chlorophenyl)methyl]carboxamide]	1190 nM
CCc1ccc(NC(=O)OCC2(C(=O)NCc3ccccc3Cl)CCN(C(=O)C(N)CN)CC2)cc1 (centres unmarked) [(1-(2,3-diaminopropanoyl)-4-{[N-(4-ethylphenyl)carbamoyloxy]methyl}(4-piperidyl))-N-[(2-chlorophenyl)methyl]carboxamide]	1020 nM
COc1cccc(NC(=O)OCC2(C(=O)NCc3ccccc3Cl)CCOCC2)c1 [N-[(2-chlorophenyl)methyl](4-{[N-(3-methoxyphenyl)carbamoyloxy]methyl}(2H-3,4,5,6-tetrahydropyran-4-yl))carboxamide]	19000 nM
CCc1ccc(NC(=O)OCC2(C(=O)NCc3ccccc3Cl)CCN(C(=O)OCCN)CC2)cc1 [2-aminoethyl 4-{N-[(2-chlorophenyl)methyl]carbamoyl}-4-{[N-(4-ethylphenyl)carbamoyloxy]methyl}piperidinecarboxylate]	336 nM
CCc1ccc(NC(=O)OCCNC(C)=O)cc1 [N-{2-[N-(4-ethylphenyl)carbamoyloxy]ethyl}acetamide]	17400 nM
COC(=O)c1ccccc1CNC(=O)C1(COC(=O)Nc2ccc(C(F)(F)F)cc2)CCN(C(=O)CN)CC1 [methyl 2-({[1-(2-aminoacetyl)-4-({N-[4-(trifluoromethyl)phenyl]carbamoyloxy}methyl)-4-piperidyl]carbonylamino}methyl)benzoate]	2290 nM
CCc1ccc(NC(=O)OCC2(C(=O)NCc3ccccc3Cl)CCN(Cc3ccccc3)CC2)cc1 [N-[(2-chlorophenyl)methyl](4-{[N-(4-ethylphenyl)carbamoyloxy]methyl}-1-benzyl(4-piperidyl))carboxamide]	14400 nM
CCc1ccc(NC(=O)OCCCCN(C)C(=O)NCc2ccccc2Cl)cc1 [{[(2-chlorophenyl)methyl]amino}-N-{4-[N-(4-ethylphenyl)carbamoyloxy]butyl}-N-methylcarboxamide]	6070 nM
CCc1ccc(NC(=O)OCC2(C(=O)NCc3ccc(C)cc3C)CCN(C(=O)CN)CC2)cc1 [[(1-(2-aminoacetyl)-4-{N-[(2,4-dimethylphenyl)methyl]carbamoyl}(4-piperidyl))methoxy]-N-(4-ethylphenyl)carboxamide]	576 nM
CC(C)(C)OC(=O)NCC(=O)N1CCC(COC(=O)Nc2ccc(C(F)(F)F)cc2)(C(=O)NCc2cccc(Cl)c2Cl)CC1 [[(4-{N-[(2,3-dichlorophenyl)methyl]carbamoyl}-1-{2-[(tert-butoxy)carbonylamino]acetyl}(4-piperidyl))methoxy]-N-[4-(trifluoromethyl)phenyl]carboxamide]	3720 nM
Cc1ccc(NC(=O)OCC2(C(=O)NCc3ccccc3Cl)CCOCC2)c(C)c1 [(4-{[N-(2,4-dimethylphenyl)carbamoyloxy]methyl}(2H-3,4,5,6-tetrahydropyran-4-yl))-N-[(2-chlorophenyl)methyl]carboxamide]	1260 nM
CCc1ccc(NC(=O)OCC2(C(=O)NCc3ccccc3Cl)CCN(C(=O)c3ccccn3)CC2)cc1 [N-[(2-chlorophenyl)methyl](4-{[N-(4-ethylphenyl)carbamoyloxy]methyl}-1-(2-pyridylcarbonyl)(4-piperidyl))carboxamide]	757 nM

Next, values leading:

IC50	Structure (SMILES)
10200 nM	CCc1ccc(NC(=O)O[C@H]2CCCN(C(=O)NCc3ccccc3Cl)C2)cc1 [{(3S)-3-[N-(4-ethylphenyl)carbamoyloxy]piperidyl}-N-[(2-chlorophenyl)methyl]carboxamide]
185 nM	CCc1ccc(NC(=O)OC[C@@H]2CCCN2C(=O)NCc2ccccc2Cl)cc1 [((2S)-2-{[N-(4-ethylphenyl)carbamoyloxy]methyl}pyrrolidinyl)-N-[(2-chlorophenyl)methyl]carboxamide]
5540 nM	CCc1ccc(NC(=O)OC2CCCN(C(=O)NCc3ccccc3C)C2)cc1 (centres unmarked) [{3-[N-(4-ethylphenyl)carbamoyloxy]piperidyl}-N-[(2-methylphenyl)methyl]carboxamide]
1660 nM	CCc1ccc(NC(=O)OCC2(C(=O)NCc3ccccc3Cl)CCNCC2)cc1 [N-[(2-chlorophenyl)methyl](4-{[N-(4-ethylphenyl)carbamoyloxy]methyl}(4-piperidyl))carboxamide]
6810 nM	CCc1ccc(NC(=O)OC[C@@H](C)N(C)C(=O)NCc2ccccc2Cl)cc1 [[(2R)-2-({[(2-chlorophenyl)methyl]amino}-N-methylcarbonylamino)propoxy]-N-(4-ethylphenyl)carboxamide]
221 nM	CCc1ccc(NC(=O)OCC2(C(=O)NCc3ccccc3Cl)CCN(C(=O)C3CCN3)CC2)cc1 (centres unmarked) [(1-(azetidin-2-ylcarbonyl)-4-{[N-(4-ethylphenyl)carbamoyloxy]methyl}(4-piperidyl))-N-[(2-chlorophenyl)methyl]carboxamide]
530 nM	CCc1ccc(NC(=O)OCC2(C(=O)NCc3ccccc3Cl)CCN(C(=O)OC)CC2)cc1 [methyl 4-{N-[(2-chlorophenyl)methyl]carbamoyl}-4-{[N-(4-ethylphenyl)carbamoyloxy]methyl}piperidinecarboxylate]
11700 nM	CCc1ccc(NC(=O)OCC2CN(C(=O)NCc3ccccc3Cl)CCO2)cc1 (centres unmarked) [[(4-{N-[(2-chlorophenyl)methyl]carbamoyl}morpholin-2-yl)methoxy]-N-(4-ethylphenyl)carboxamide]
235 nM	CCc1ccc(NC(=O)OCCC(C)(C)C(=O)NCc2ccccc2Cl)cc1 [N-[(2-chlorophenyl)methyl]-4-[N-(4-ethylphenyl)carbamoyloxy]-2,2-dimethylbutanamide]

— patent publication US8071625B2, “Certain chemical entities, compositions, and methods” (Cytokinetics, Inc., priority 2006, dated 2011)
